This is an account of results in publication PMC5111108, “An insecticide resistance-breaking mosquitocide targeting inward rectifier potassium channels in vectors of Zika virus and malaria” (Scientific Reports, 2016).

In the data set the target is T1, AnKir1 (Anopheles gambiae, UniProt A0A075M2J8).
T1 sequence (A0A075M2J8 1-555): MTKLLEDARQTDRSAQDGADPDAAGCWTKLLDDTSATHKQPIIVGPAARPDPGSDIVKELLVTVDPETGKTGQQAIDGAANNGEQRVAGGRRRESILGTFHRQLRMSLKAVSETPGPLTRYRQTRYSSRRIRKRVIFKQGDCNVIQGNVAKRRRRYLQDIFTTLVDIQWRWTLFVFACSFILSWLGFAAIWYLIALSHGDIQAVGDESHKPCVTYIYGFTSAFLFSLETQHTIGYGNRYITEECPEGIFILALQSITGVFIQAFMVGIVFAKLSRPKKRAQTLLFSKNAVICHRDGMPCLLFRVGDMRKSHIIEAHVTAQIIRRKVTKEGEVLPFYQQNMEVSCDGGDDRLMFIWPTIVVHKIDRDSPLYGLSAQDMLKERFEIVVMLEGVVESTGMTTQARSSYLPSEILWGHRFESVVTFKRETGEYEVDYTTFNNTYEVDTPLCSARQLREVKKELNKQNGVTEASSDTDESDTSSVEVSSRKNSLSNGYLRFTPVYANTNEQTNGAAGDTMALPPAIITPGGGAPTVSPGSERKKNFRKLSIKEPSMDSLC
The data set is described as follows: Tl+ flux assay in T-REx-HEK293 cells expressing AnKir1. The data set is classed as cell-based. As to the method: Tl^+ flux assays were performed essentially as described previously. Briefly, stably transfected T-Rex-HEK-293 cells expressing AnKir1 channels were cultured overnight in 384-well plates (20,000 cells/20 μL/well black-walled, clear-bottomed BD PureCoat amine-coated plates (BD, Bedford, MA) with a plating media containing DMEM, 10% dialyzed FBS and 1 μg/mL tetracycline. Approximately twenty-four hours after cell plating, the cell culture medium was replaced with a dye-loading solution containing assay buffer (Hanks Balanced Salt Solution with 20 mM HEPES, pH 7.3), 0.01% (w/v) Pluronic F-127 (Life Technologies, Carlsbad, CA), and 1.2 μM of the thallium-sensitive dye Thallos-AM (TEFlabs, Austin, TX). Following 1 hr incubation at room temperature, the dye-loading solution was washed from the plates and replaced with 20 μL/well of assay buffer.
Tl+ flux assay development
Tl+ flux assays were performed essentiall y as described previousl y (1). Briefl y, stabl y transfect ed T-Rex -HEK- 293- AnKir1 cells were cultured overnight in 384-well plates in media containing DMEM, 10% dial yz ed FBS and 1μg/ m L tetrac ycline to induce channel expression
(Fig. S1A). The next day, the cell culture medium was replaced with a dye-loading solution containing assay buffer (Hanks Balanced Salt Solution with 20 mM HEPES, pH 7.3), 0.01% (w/v) Pluronic F-127 (Li fe Technologies, Carlsbad, CA), and 1.2 μM of the thallium-sensitive dye Thallos-AM (TEFl abs, Austin, TX). Following 1 hr incubation at room temperature, the d ye-loading solution was washed from the plates and replaced with 20 μ L/well of assa y buffer. The plates were transferred t o a Ham amatsu Functional Drug Screening System 6000 (FDSS6000; Hamamatsu, Tokyo, J apan) where 20 μ L/well of test compounds in assay buffer (as prepared below) were added and allowed to incubate with the cells for 20 min. After the incubation period, a baseline recordi ng was collected at 1 Hz for 10 s (excitation 470 ± 20 nm, emission 540 ± 30 nm) followed by a t hallium stimulus buffer addition (10 μL/well) and data collection for an additional 4 min. The Tl + stimulus buffer contains in (mM) 125 NaHCO3, 1.8 CaSO4, 1 MgSO4, 5 glucose, 12 Tl2SO4, 10 HEPES, pH 7.4. For Tl + flux assays on Kir2.x, Kir4.1 and Kir6.2/SUR1 ex pressing cells, the Tl+ stimulus buffer contained 1.8 mM Tl 2SO4. To ensure the small-molecule vehicle DMSO had no direct effect on An Ki r1-dependent Tl+ flux, the assa y’s tolerance to different doses of DMSO was evaluated (Fig. S1B). The robustness and reproducibility of the assay was determined by comparing Tl+ flux through tetracycline-induced and tetracycline-uninduced cells (Fig. S1C). The Z’ value was calculated as described previously (1 ), using the […]
Z’ = 1- (3SD p + 3SD n)/ |meanp + meann | where SD is standard deviation, p and n are control and uninduced flux values respectivel y.
To compare the effect of DMSO on An Kir1-mediated Tl+ flux, a one-way ANOVA was performed with a Tuke y’s multiple comparison test. Prism software (GraphPad Software) was used to generate CRC from Tl+ fl ux ..Half-inhibition concentration (IC50) values were calculated from fits using a four parameter logistic equation.
High-throughput screeni ng
The test compounds were transferred to daughter pol yprop ylene 384-well plates (G reiner Bio-One, Monroe, NC) using an Echo555 liquid handler (Labcyte, Sunnyvale, CA), and then diluted into assay buffer to generat e a 2X stock in 0.6% DMSO (0.3% final). For Tl+ flux assays on Kir6.2/SUR1 expressing cells, test compounds were diluted in assay buffer containing diazoxide (250 μM final) to induce channel activation. Concentration- response curves (CRCs) were gener ated b y screening compounds at 3-fold dilution series (1 nM - 30 μM).
Tl+ flux data were anal yzed as previousl y d escri bed (2, 3) using a combination of Excel (Microsoft Corp, Redmond, WA) with XLfit add-in (IDBS, Guildford, Surre y, UK), Ori ginPro […]

Where [1] appears, read: Tl+ flux, Tables S2/S3 and supplemental text, read-out: AnKir1 IC50.
[2] abbreviates: Tl+ flux assay, read-out: AnKir1 IC50 (Tl+ flux).

“Also recorded” adds a separate entry of the source. Read-outs that look alike come from different tables or passages of the source.

One may read the IC50 as the midpoint of a concentration-inhibition curve. As to `O=C1CCCc2c1ccn2CC(=O)N1CCCc2ccccc21` [Compound 4], the 50% inhibitory concentration (IC50) under setting [1] turned out to be 12.1 µM.
On the same count and under the same terms, the same measure for `O=C(Cn1nc(C(F)(F)F)c2c1CCCC2)N1CCCC2CCCCC21` (stereo not shown) [Compound 9]: 6.7 µM.
On the same count and under the same terms, the same measure for `O=C(Cn1nc(C(F)(F)F)c2c1CCCC2)N1CCCC(c2ccccc2)C1` (stereo not shown) [Compound 12]: 5.6 µM; for `CC1CC(C)CN(C(=O)Cn2nc(C(F)(F)F)c3c2CCCC3)C1` (stereo not shown) [Compound 13]: 4.5 µM.
As for `O=C(Cn1nc(C(F)(F)F)c2c1CCCC2)N1CCCc2ccccc21` [VU041, 1-(3,4-dihydroquinolin-1(2H)-yl)-2-(3-(trifluoromethyl)-4,5,6,7-tetrahydro-1H-indazol-1-yl)ethan-1-one], the “Hill-coefficient (Tl+ flux, AnKir1)” value (Tl+ flux CRC) is reported as 1.1. Further, the IC50 was determined as 2.5 µM under setting [2] and 2.3 µM under setting [1].
For `O=C(Cn1ncc2c1CCOC2)N1CCCc2ccccc21` [VU730], the IC50 under setting [2] was 2.4 µM.
Usually inhibition stands for the relative decrease from the control value, in per cent. Turning to `O=C(Cn1nc(C(F)(F)F)c2c1CCCC2)NC1CCC1` [VU937], the “AnKir1 IC50” value (Tl+ flux, Tables S2/S3 and supplemental text, listed as 18) was “not tolerated; also recorded: inactive”. Besides, the inhibition at 30 µM (at 30 μM, read-out: inhibition of AnKir1-mediated Tl+ flux) was below 50%.
